Data as given in PubChem BioAssay AID651703 (Broad Institute, 2012).

Target: Transforming acidic coiled-coil-containing protein 3 (Homo sapiens) (UniProt Q9Y6A5)
Assay: ARNT/TACC3 interaction disruptors, potency, confirmation, biochemical, AlphaScreen, cherry-picked samples (AID 651703);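 note: TACC3 partner is the GST-tagged E629A mutant dimer; hits lower the signal meaning they disrupt ARNT binding to TACC3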
Conditions: AlphaScreen His-ARNT PAS-B / GST-TACC3 binding, luminescence

CCc1ccc(NC(=O)CSc2ccc(-c3ccccn3)nn2)cc1
AC50: 4.37 µM

CN1CCN(c2cc(-c3cc(O)c4ncccc4c3)ccn2)CC1
AC50: 1.77 µM

Cc1nc2ncccn2c1-c1csc(Nc2ccc(O)cc2)n1
AC50: 4.61 µM

CCC(C)c1c(N)n(S(=O)(=O)c2ccc(C)cc2)oc1=O (stereo unspecified)
AC50: 44.1 µM

O=C(CSc1ccc2nnc(-c3ccccn3)n2n1)Nc1nccs1
AC50: 11.2 µM

O=C(COC(=O)c1ccccn1)c1cccc(Br)c1
AC50: 11.8 µM

O=C(COC(=O)c1cccs1)Nc1nnc(-c2ccccc2)o1
AC50: 14.1 µM

CCN(CC)C(=O)c1sc2nc(-c3ccccn3)[nH]c(=O)c2c1C
AC50: 10.5 µM

c1ccc(-c2cnnc(-c3ccccn3)n2)cc1
AC50: 2.57 µM

COCc1cc(=O)[nH]c(Nc2nc3ccc(C)cc3o2)n1
AC50: 7.59 µM

Cc1cc([N+](=O)[O-])cc(/C=N\NC(=O)C2COc3ccccc3O2)c1O (stereo unspecified)
AC50: 36.3 µM

Cc1ccc(-c2cnc(N)n2C)cc1C
AC50: 41.1 µM

COc1c(O)cccc1/C=N/NC(=O)Cn1ccnc1C
AC50: 8.02 µM

C/C=C/c1ccc([C@H]2[C@@H](CO)N(Cc3ccccn3)[C@H]2CNC(C)=O)cc1
AC50: 45.9 µM

Cc1cccc(Nc2nc(-c3ccccn3)nnc2-c2ccccc2)n1
AC50: < 0.5 µM

N#CC1=C(N)Oc2c(ccc3cccnc23)C1c1ccccc1 (stereo unspecified)
AC50: 17.7 µM

Cc1ncc(CO)c(/C=N/NC(=O)c2cc3c(s2)CCCC3)c1O
AC50: 11.3 µM

O=C(N/N=C/c1c(O)n(CCC2=CCCCC2)c(=O)[nH]c1=O)c1ccccc1
AC50: 19.5 µM

CCc1ccc2c(c1)C1(NN=C(c3ccc(C)cc3)S1)C(=O)N2 (stereo unspecified)
AC50: 1.52 µM

COc1cccc(/C=N/Nc2nc3ccccc3[nH]2)c1O
AC50: 26.6 µM

C(=N\Nc1ccc2nncn2n1)/c1ccccn1
AC50: 14 µM

NC1=NN=C(N2N=C(c3ccco3)CC2(O)C(F)(F)F)n2ncnc2C1 (stereo unspecified)
AC50: 12 µM

COc1ccc(S(=O)(=O)N2CCCOC2CNC(=O)C(=O)NCCCn2ccnc2)cc1OC (stereo unspecified)
AC50: 47.2 µM

Cn1c(CNc2ccccc2O)nc2ccccc21
AC50: 21.8 µM

O=C(COc1ccc(Cl)cc1)Nc1nnc(-c2ccco2)o1
AC50: 19.6 µM

COc1ccc(C2C(C#N)=C(N)Oc3c2ccc2cccnc32)cc1OC (stereo unspecified)
AC50: 58.6 µM

COc1cc(NS(=O)(=O)c2ccc(Nc3nc(-c4ccccn4)cs3)cc2)nc(OC)n1
AC50: 17.3 µM

CCOC(=O)c1c(OCC)[nH]c2c1cc(O)c1ccccc12
AC50: 56.9 µM

O=C(Nc1nnc(-c2ccccc2Cl)o1)c1cccnc1
AC50: 15.8 µM

CCOc1cc(CNCc2ccccn2)cc(Cl)c1OCC
AC50: 45 µM

O=C(CSc1n[nH]c(-c2ccccn2)n1)Nc1ccc(Cl)cc1
AC50: 2.08 µM

Cc1cc(NC(c2cccnc2)c2ccc3cccnc3c2O)no1 (stereo unspecified)
AC50: 1.02 µM

CC(C)(C)OC(=O)N1CCN(Cc2ccc(O)c3ncccc23)CC1
AC50: 0.625 µM

O=C(NC[C@@H]1[C@H](c2ccccc2)[C@H](CO)N1Cc1ccccn1)C1CCCC1
AC50: 40.7 µM

O=C(Nc1nc(-c2ccccn2)cs1)c1cc(S(=O)(=O)N2CCOCC2)ccc1F
AC50: 4.43 µM

Cn1c(-c2ccc(Cl)cc2)cnc1N
AC50: 20.5 µM

COc1ccc(Br)cc1CNc1ccc(O)cc1
AC50: 37.6 µM

O=C(Nc1nnc(C2CC2)o1)c1ccc(S(=O)(=O)N2CCCCC2)cc1
AC50: 18.4 µM

N#CC1(c2ccccc2)CCN(Cc2ccc(O)c3ncccc23)CC1
AC50: 3.66 µM

O=C(COc1nsnc1N1CCOCC1)N/N=C/c1ccccc1O
AC50: 34.9 µM

O=S1(=O)N=C(N(CCO)/N=C/C=C/c2ccccc2)c2ccccc21
AC50: 53.9 µM

O=c1[nH]c(O)c(N=Nc2cc([N+](=O)[O-])ccc2O)c(=O)[nH]1
AC50: 25.5 µM

Cc1ccccc1-n1c(O)c(/C=N/NC(=O)c2ccncc2)c(=O)[nH]c1=O
AC50: 11.5 µM

C#CCOCCOCCOCCNc1nc(N2CCN(C(=O)[C@H](CC(N)=O)n3cc([C@@H](N)CC(N)=O)nn3)CC2)nc(N2CCN(C(=O)[C@H](CC(N)=O)n3cc([C@@H](N)CC(N)=O)nn3)CC2)n1
AC50: 47.1 µM

Oc1c(CN2CCOCC2)cc(COCc2ccccc2)c2cccnc12
AC50: 0.614 µM

O=C(CSC1=NNC(c2ccccn2)S1)Nc1ccccc1 (stereo unspecified)
AC50: 0.823 µM

O=C(O)C1CCCCC1C(=O)NCCCn1ccnc1 (stereo unspecified)
AC50: 54.4 µM

Cc1cccc(OCc2nc(-c3ccccn3)n[nH]2)c1
AC50: 5.94 µM

C=CCNc1nc(-c2ccccn2)nnc1-c1ccccc1
AC50: < 0.5 µM

Cc1nc(Nc2ccc(C(=O)O)cc2)nc(Nc2ccc(C(=O)O)cc2)c1[N+](=O)[O-]
AC50: 22.1 µM

Cc1ccc(C)c(S(=O)(=O)N2CCN(Cc3ccc(O)c4ncccc34)CC2)c1
AC50: 5.27 µM

O=C(CSc1n[nH]c(-c2ccccn2)n1)Nc1cccc(Cl)c1
AC50: 4.78 µM

COc1cc(C(=O)NCc2nnc(SCC(=O)Nc3nccs3)o2)cc(OC)c1OC
AC50: 58.8 µM

O=C(CSc1ccc(-c2ccccn2)nn1)c1ccc([N+](=O)[O-])cc1
AC50: 4.73 µM

O=C(CSc1ccc2nnc(-c3ccccn3)n2n1)Nc1ccccc1F
AC50: 28.6 µM

CCc1cc2c(=O)[nH]c(-c3ccccn3)nc2s1
AC50: 2.86 µM

COC(=O)c1ccccc1-c1ccc(C(c2c(C)[nH][nH]c2=O)c2c(C)[nH][nH]c2=O)o1
AC50: 15.7 µM

Oc1c(I)cc(I)c2cccnc12
AC50: 7.46 µM

NC(=O)CSc1nnc(-c2ccc(O)cc2)n1Cc1ccco1
AC50: 40.8 µM

O=C(CSc1cccc2cccnc12)OCC(=O)c1ccccc1
AC50: 37.3 µM

Cc1cccc(CNC(=O)c2cc(-c3ccccc3)on2)c1
AC50: 23.4 µM

COc1ccc(NC(=O)N[C@H]2CC[C@@H](CCn3cc(-c4ccccn4)nn3)O[C@H]2CO)cc1
AC50: 17 µM

COc1ccc(C(=O)Oc2cccc3cccnc23)cc1[N+](=O)[O-]
AC50: 15 µM

O=C(NC[C@H]1[C@@H](c2ccccc2)[C@@H](CO)N1Cc1ccccn1)C1CC1
AC50: 48.4 µM

Cc1ccc(C)c(-n2c(SCC(N)=O)nnc2-c2ccccn2)c1
AC50: 20 µM

Nc1ncnc(Oc2cccc3cccnc23)c1[N+](=O)[O-]
AC50: 11.1 µM

CCN(CC)S(=O)(=O)c1cccc(C(=O)N/N=C/c2ccc(O)c(O)c2O)c1
AC50: 4.5 µM

Oc1c(C(c2ccccc2Cl)N2CCCC2)ccc2cccnc12 (stereo unspecified)
AC50: 1.85 µM

c1ccc(-c2nnc(-c3ccccn3)nc2NCC2CC2)cc1
AC50: < 0.5 µM

c1ccc(-c2nnc(SCc3nc4ccccc4[nH]3)n2Cc2ccco2)nc1
AC50: 19.8 µM

c1ccc(-c2cnc(Nc3nc(-c4ccccn4)nnc3-c3ccccc3)s2)cc1
AC50: 0.916 µM

C/C(=N\NC(=O)c1cccc2ccccc12)c1ccccn1
AC50: 3.15 µM

N#Cc1ccc(OCC(=O)NCCCn2ccnc2)cc1
AC50: 8.65 µM

CCN(CC)c1ccc(Nc2nc(N3CCOCC3)c3ccccc3n2)cc1
AC50: 4.99 µM

COc1cc(-c2nnc(NC(=O)CS(=O)(=O)c3ccc(F)cc3)o2)cc(OC)c1OC
AC50: 24.3 µM

COc1ccc(C)cc1NC(=O)CSc1ccc(-c2ccccn2)nn1
AC50: 3.11 µM

Cc1ccccc1CNc1nc(-c2ccccn2)nnc1-c1ccccc1
AC50: 0.647 µM

O=C(N[C@@H]1CC[C@H](CCn2cc(-c3ccccn3)nn2)O[C@H]1CO)c1ccncc1
AC50: 7.57 µM

O=C(CSc1ccc2nnc(-c3ccccn3)n2n1)Nc1ccc(F)cc1F
AC50: 35.4 µM

CCOc1ccc2c(c1)c(N=NC(=N)N)c(O)n2C
AC50: 53.9 µM

Cc1ccc(C)c(S(=O)(=O)N2CCCOC2CNC(=O)C(=O)NCCCn2ccnc2)c1 (stereo unspecified)
AC50: 4.16 µM

COC(=O)c1ccc(C(=O)O)nc1
AC50: 32.8 µM

CCCOc1ccc(/C=N/Nc2cc(N3CCOCC3)ncn2)c(O)c1
AC50: 8 µM

Cc1cccc(C(=O)Nc2nnc(-c3ccncc3)o2)c1
AC50: 36.5 µM

COc1ccc(C2c3ccc(O)cc3Oc3ncn4nc(-c5ccccn5)nc4c32)cc1OC (stereo unspecified)
AC50: 52.5 µM

O=C(N[C@H]1CC[C@@H](CCn2cc(-c3ccccn3)nn2)O[C@@H]1CO)c1ccc(F)cc1
AC50: 14.8 µM

CCOc1cc(N2CCOCC2)c(OCC)cc1NC(=O)COc1cccc2cccnc12
AC50: 20.3 µM

N[C@H]1CC[C@@H](CCn2cc(-c3ccccn3)nn2)O[C@H]1CO
AC50: 1.42 µM

O=C(Oc1cccc2cccnc12)c1ccco1
AC50: 9.83 µM

Cc1ccc2cc(C3C(C#N)=C(N)Oc4c3ccc3cccnc43)c(=O)[nH]c2c1 (stereo unspecified)
AC50: 7.43 µM

Oc1cccc(/C=N/Nc2ccc(Cl)nn2)c1O
AC50: 1.5 µM

Fc1ccc(-c2ccc(CNCc3ccccn3)o2)cc1
AC50: 31.2 µM

O=c1cc(CSc2ccc(Cl)cc2)nc(-c2ccccn2)[nH]1
AC50: 3.69 µM

O=Nc1ccc(O)c2ncccc12
AC50: 13.6 µM

COc1ccc(/C=N/Nc2nncn2N)cc1Br
AC50: 25.1 µM

O=C(Oc1c(CN2CCOCC2)cc(Cl)c2cccnc12)c1ccccc1Br
AC50: 10.3 µM

CC(C)C(=O)NC(c1cccc([N+](=O)[O-])c1)c1ccc2cccnc2c1O (stereo unspecified)
AC50: 3.82 µM

CC(=O)Nc1cccc(C(=O)O)n1
AC50: 12.2 µM

Cc1ccc(NC(=O)CSc2ccc(-c3ccccn3)nn2)cc1F
AC50: 3.98 µM

c1ccc(-c2nc3cc4ccccc4cc3[nH]2)nc1
AC50: 32.7 µM

O=C(CSc1ccc2nnc(-c3ccccn3)n2n1)NCC1CCCO1 (stereo unspecified)
AC50: 49.7 µM

O=C(N[C@H]1CC[C@@H](CCn2cc(-c3ccccn3)nn2)O[C@@H]1CO)c1ccncc1
AC50: 15.8 µM

Cc1ccc(S(=O)(=O)NC(=O)c2cc(C)n(CCCn3ccnc3)c2C)cc1
AC50: 21.2 µM

O=C(N/N=C/c1cc(Br)ccc1O)C(c1ccncc1)N1CCOCC1 (stereo unspecified)
AC50: 13.4 µM

OCC1CCN(Cc2ccc(O)c3ncccc23)CC1
AC50: < 0.5 µM

CC(=O)c1cccc(NC(=O)CSc2ccc(-c3ccccn3)nn2)c1
AC50: 3.21 µM

C[C@H](NC(=O)c1ccco1)C(=O)Nc1nc(-c2ccccn2)cs1
AC50: 8.23 µM

c1ccc(-c2nnc(-c3ccccn3)nc2NCc2ccccn2)cc1
AC50: < 0.5 µM

O=S(=O)(N[C@H]1CC[C@H](CCn2cc(-c3ccccn3)nn2)O[C@H]1CO)c1cccc(Cl)c1
AC50: 26.6 µM

Oc1c(C(Nc2ccccn2)c2cccnc2)cc(Cl)c2cccnc12 (stereo unspecified)
AC50: 5.67 µM

COc1cc([N+](=O)[O-])cc(/C=N/NC(=O)Cn2cncn2)c1O
AC50: 5.87 µM

N[C@H]1CC[C@H](CCn2cc(-c3ccccn3)nn2)O[C@@H]1CO
AC50: 1.03 µM

O=C(CN1C(=O)C2C3C=CC(C3)C2C1=O)Nc1nc(-c2ccccn2)cs1 (stereo unspecified)
AC50: 6.76 µM

O=C(Nc1nc(-c2ccccn2)cs1)C1COc2ccccc2O1 (stereo unspecified)
AC50: 5.46 µM

c1ccc(-c2cccc(CNc3nc(-c4ccccn4)nnc3-c3ccccc3)c2)cc1
AC50: 2.28 µM

O=C(CNCc1ccccn1)Nc1ccc([N+](=O)[O-])cc1C(=O)Nc1ccccc1F
AC50: 3.05 µM
